Experimental data taken from US11053204B2, “Pyrimidinyloxy benzene derivatives as herbicides” (FMC Corporation, priority 2015, dated 2021).

Columns and labels:
Format in all cases: in vivo
[1] = tested on: galium (catchweed bedstraw, Galium aparine); test: Test C preemergence, plant response rating
[2] = tested on: johnsongrass (Sorghum halepense); test: Test C preemergence, plant response rating
kochia (Kochia scoparia) = test: Test C preemergence, plant response rating
[3] = tested on: buckwheat, wild (wild buckwheat, Polygonum convolvulus); test: Test C postemergence, plant response rating; conditions: for Buckwheat, Wild plant response rating: scale 0 to 100 (0 no effect, 100 complete control)
How it was run: (§1)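 After sowing in loam–sand blend or silt loam, pots were sprayed preemergence; separately grown 1- to 4-leaf plants were sprayed postemergence. Following 13 to 15 d under greenhouse conditions, injury was rated visually on a 0 to 100 scale.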

[4] = tested on: wild poinsettia (Euphorbia heterophylla); test: Test C postemergence, plant response rating; conditions: for Poinsettia, Wild plant response rating: scale 0 to 100 (0 no effect, 100 complete control)
How it was run: as §1

[5] = tested on: field violet (Viola arvensis); test: Test C postemergence, plant response rating; conditions: for Field Violet plant response rating: scale 0 to 100 (0 no effect, 100 complete control)
How it was run: as §1

[6] = tested on: nightshade (eastern black nightshade, Solanum ptycanthum); test: Test C postemergence, plant response rating; conditions: for Nightshade plant response rating: scale 0 to 100 (0 no effect, 100 complete control)
How it was run: as §1

[7] = tested on: wild mustard (Sinapis arvensis); test: Test C postemergence, plant response rating; conditions: for Mustard, Wild plant response rating: scale 0 to 100 (0 no effect, 100 complete control)
How it was run: as §1

[8] = tested on: surinam grass (Brachiaria decumbens); test: Test C postemergence, plant response rating
How it was run: as §1

[9] = tested on: field poppy (Papaver rhoeas); test: Test C postemergence, plant response rating; conditions: for Field Poppy plant response rating: scale 0 to 100 (0 no effect, 100 complete control)
How it was run: as §1

[10] = tested on: johnsongrass (Sorghum halepense); test: Test C postemergence, plant response rating; conditions: for Johnsongrass plant response rating: scale 0 to 100 (0 no effect, 100 complete control)
How it was run: as §1

[11] = tested on: Canada thistle (Cirsium arvense); test: Test C postemergence, plant response rating; conditions: for Canada Thistle plant response rating: scale 0 to 100 (0 no effect, 100 complete control)
How it was run: as §1

[12] = tested on: windgrass (Apera spica-venti); test: Test C postemergence, plant response rating
How it was run: as §1

[13] = tested on: geranium, cutleaf (cutleaf geranium, Geranium dissectum); test: Test C postemergence, plant response rating; conditions: for Geranium, Cutleaf plant response rating: scale 0 to 100 (0 no effect, 100 complete control)
How it was run: as §1

[14] = tested on: pigweed, palmer (palmer pigweed, Amaranthus palmeri); test: Test C postemergence, plant response rating; conditions: for Pigweed, Palmer plant response rating: scale 0 to 100 (0 no effect, 100 complete control)
How it was run: as §1

[15] = tested on: speedwell (bird's-eye speedwell, Veronica persica); test: Test C postemergence, plant response rating; conditions: for Speedwell plant response rating: scale 0 to 100 (0 no effect, 100 complete control)
How it was run: as §1

[16] = tested on: windgrass (Apera spica-venti); test: Test C preemergence, plant response rating
[17] = tested on: pigweed, palmer (palmer pigweed, Amaranthus palmeri); test: Test C preemergence, plant response rating
[18] = 125 g ai/ha, scale 0 to 100 (0 no effect, 100 complete control)

CCCC(=O)c1c(Oc2ncc(Cl)cn2)cccc1C(F)(F)F [Compound 136]
Plant response rating, Galium ([1]; 31 g ai/ha, scale 0 to 100): 0 | Plant response rating, Galium ([1]; 62 g ai/ha, scale 0 to 100): 50 | Plant response rating, Galium ([1]; 125 g ai/ha, scale of 0 to 100): 90 | Plant response rating, Johnsongrass ([2]; 31 g ai/ha, scale 0 to 100): 25 | Plant response rating, Johnsongrass ([2]; 62 g ai/ha, scale 0 to 100): 35 | Plant response rating, Johnsongrass ([2]; 125 g ai/ha, scale of 0 to 100): 70 | Plant response rating, Kochia (kochia (Kochia scoparia); 31 g ai/ha, scale 0 to 100): 80 | Plant response rating, Kochia (kochia (Kochia scoparia); 62 g ai/ha, scale 0 to 100): 85 | Plant response rating, Kochia (kochia (Kochia scoparia); 125 g ai/ha, scale of 0 to 100): 98 | Plant response rating, Buckwheat, Wild ([3]; 16 g ai/ha, scale of 0 to 100): 50 | Plant response rating, Buckwheat, Wild ([3]; 31 g ai/ha, scale 0 to 100): 60 | Buckwheat, Wild plant response rating ([3]; 62 g ai/ha): 90 | Buckwheat, Wild plant response rating ([3]; 125 g ai/ha): 80 | Plant response rating, Poinsettia, Wild ([4]; 16 g ai/ha, scale of 0 to 100): 40 | Plant response rating, Poinsettia, Wild ([4]; 31 g ai/ha, scale 0 to 100): 65 | Poinsettia, Wild plant response rating ([4]; 62 g ai/ha): 70 | Poinsettia, Wild plant response rating ([4]; 125 g ai/ha): 75 | Plant response rating, Field Violet ([5]; 16 g ai/ha, scale of 0 to 100): 85 | Plant response rating, Field Violet ([5]; 31 g ai/ha, scale 0 to 100): 90 | Field Violet plant response rating ([5]; 62 g ai/ha): 95 | Field Violet plant response rating ([5]; 125 g ai/ha): 100 | Plant response rating, Nightshade ([6]; 16 g ai/ha, scale of 0 to 100): 70 | Plant response rating, Nightshade ([6]; 31 g ai/ha, scale 0 to 100): 75 | Nightshade plant response rating ([6]; 62 g ai/ha): 70 | Nightshade plant response rating ([6]; 125 g ai/ha): 80 | Plant response rating, Mustard, Wild ([7]; 16 g ai/ha, scale of 0 to 100): 85 | Plant response rating, Mustard, Wild ([7]; 31 g ai/ha, scale 0 to 100): 95 | Mustard, Wild plant response rating ([7]; 62 g ai/ha): 85 | Mustard, Wild plant response rating ([7]; 125 g ai/ha): 100 | Plant response rating, Surinam Grass ([8]; 16 g ai/ha, scale of 0 to 100): 5 | Plant response rating, Surinam Grass ([8]; 31 g ai/ha, scale 0 to 100): 5 | Surinam Grass plant response rating [8, 18]: 10 | Plant response rating, Field Poppy ([9]; 16 g ai/ha, scale of 0 to 100): 65 | Plant response rating, Field Poppy ([9]; 31 g ai/ha, scale 0 to 100): 85 | Field Poppy plant response rating ([9]; 62 g ai/ha): 80 | Field Poppy plant response rating ([9]; 125 g ai/ha): 90 | Plant response rating, Johnsongrass ([10]; 16 g ai/ha, scale of 0 to 100): 5 | Plant response rating, Johnsongrass ([10]; 31 g ai/ha, scale 0 to 100): 5 | Johnsongrass plant response rating ([10]; 62 g ai/ha): 10 | Johnsongrass plant response rating ([10]; 125 g ai/ha): 15 | Plant response rating, Canada Thistle ([11]; 16 g ai/ha, scale of 0 to 100): 65 | Plant response rating, Canada Thistle ([11]; 31 g ai/ha, scale 0 to 100): 75 | Canada Thistle plant response rating ([11]; 62 g ai/ha): 85 | Canada Thistle plant response rating ([11]; 125 g ai/ha): 85 | Plant response rating, Windgrass ([12]; 16 g ai/ha, scale of 0 to 100): 5 | Plant response rating, Windgrass ([12]; 31 g ai/ha, scale 0 to 100): 10 | Windgrass plant response rating [12, 18]: 30 | Plant response rating, Geranium, Cutleaf ([13]; 16 g ai/ha, scale of 0 to 100): 15 | Plant response rating, Geranium, Cutleaf ([13]; 31 g ai/ha, scale 0 to 100): 25 | Geranium, Cutleaf plant response rating ([13]; 62 g ai/ha): 50 | Geranium, Cutleaf plant response rating ([13]; 125 g ai/ha): 45 | Plant response rating, Pigweed, Palmer ([14]; 16 g ai/ha, scale of 0 to 100): 50 | Plant response rating, Pigweed, Palmer ([14]; 31 g ai/ha, scale 0 to 100): 55 | Pigweed, Palmer plant response rating ([14]; 62 g ai/ha): 70 | Pigweed, Palmer plant response rating ([14]; 125 g ai/ha): 70 | Plant response rating, Speedwell ([15]; 16 g ai/ha, scale of 0 to 100): 75 | Plant response rating, Speedwell ([15]; 31 g ai/ha, scale 0 to 100): 80 | Speedwell plant response rating ([15]; 62 g ai/ha): 80 | Speedwell plant response rating ([15]; 125 g ai/ha): 85 | Plant response rating, Windgrass ([16]; 31 g ai/ha, scale 0 to 100): 30 | Plant response rating, Windgrass ([16]; 62 g ai/ha, scale 0 to 100): 85 | Plant response rating, Windgrass ([16]; 125 g ai/ha, scale of 0 to 100): 100 | Plant response rating, Pigweed, Palmer ([17]; 31 g ai/ha, scale 0 to 100): 75 | Plant response rating, Pigweed, Palmer ([17]; 62 g ai/ha, scale 0 to 100): 100 | Plant response rating, Pigweed, Palmer ([17]; 125 g ai/ha, scale of 0 to 100): 100
